Substitutions are numbered along the chain they refer to.

The term Km denotes the substrate concentration at which the rate is half of its maximum.

The target of assay [1] is T1, PmC11 (Parabacteroides merdae, UniProt A0ABF7PHE6).
T1 construct: gene PARMER_00083; signal peptide Met1-Asn22 deleted (for structure); N-terminal tag MGSDKIHHHHHHENLYFQ/G, kept in assays; E. coli BL21 Star (DE3); monomer
T1 sequence (A0ABF7PHE6 23-147): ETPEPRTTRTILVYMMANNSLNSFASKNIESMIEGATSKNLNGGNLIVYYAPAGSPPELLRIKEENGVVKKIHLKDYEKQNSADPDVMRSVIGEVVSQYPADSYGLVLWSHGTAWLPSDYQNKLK
T1 sequence (A0ABF7PHE6 148-375): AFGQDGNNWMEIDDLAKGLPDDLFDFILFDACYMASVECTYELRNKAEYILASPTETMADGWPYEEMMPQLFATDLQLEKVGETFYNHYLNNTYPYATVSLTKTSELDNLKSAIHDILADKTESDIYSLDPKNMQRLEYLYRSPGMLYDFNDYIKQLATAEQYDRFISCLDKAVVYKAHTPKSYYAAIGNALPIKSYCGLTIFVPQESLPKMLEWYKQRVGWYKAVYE
The experiment in a line: fluorogenic AMC release, Lineweaver-Burk. Format: biochemical. The conditions noted are these: pH 8.0, 20 mM Tris, 150 mM NaCl, 37 °C; enzyme preincubated 16 h at 37 °C; 0-600 μM substrate. Here is the method:
(§1) fluorogenic AMC release, Lineweaver-Burk on PmC11 | Km and Vmax of PmC11 and K147A mutant were determined by monitoring change in the fluorescence

The target in assay [2] is T2, PmC11 (Parabacteroides merdae, UniProt A0ABF7PHE6, K147A, form not given).
T2 construct: gene PARMER_00083; signal peptide Met1-Asn22 deleted (for structure); N-terminal tag MGSDKIHHHHHHENLYFQ/G, kept in assays; E. coli BL21 Star (DE3); monomer
T2 sequence (A0ABF7PHE6 23-147 K147A): T1 sequence (A0ABF7PHE6 23-147) with K125A
T2 sequence (A0ABF7PHE6 148-375): T1 sequence (A0ABF7PHE6 148-375)
The experiment in a line: fluorogenic AMC release, Lineweaver-Burk. Format: biochemical. The conditions noted are these: pH 8.0, 20 mM Tris, 150 mM NaCl, 37 °C; enzyme preincubated 16 h at 37 °C; 0-600 μM substrate; unprocessed cleavage-site mutant. On the procedure:
as §1

As for `Cc1cc(=O)oc2cc(NC(=O)[C@H](CCCNC(=N)N)NC(=O)c3ccccc3)ccc12` [Bz-R-AMC, benzoyl-L-Arg-4-methylcoumaryl-7-amide], the values for the Km on PmC11 [1] and at PmC11 [2] were 274 ± 6 µM and 301 ± 239 µM, respectively.

For the origin of these results see publication PMC4850288, “Crystal Structure and Activity Studies of the C11 Cysteine Peptidase from Parabacteroides merdae in the Human Gut Microbiome” (The Journal of Biological Chemistry, 2016).
